# Measured values reported in patent US10150743B2, “Carboxylic acid compounds” (priority 2012, dated 2018).
# How the values were obtained:
# CT26 mouse tumour cells = assay: Survival studies in CT26, a murine syngeneic colon carcinoma tumour model; assay type: in vivo; conditions: Balb/C mice; RT 2Gy x5 plus 5 mg/kg once a week i.v.; vs control or RT; FIG. 13
# Method: Experiments were conducted on female mice (Balb/C genotype, at least 5 weeks old). CT26 mouse tumour cells (CRL-2638) were purchased from ATCC. CT26 mouse tumour cells (1×10^6) were implanted subcutaneously in the flank of mice on day 0. Mice in radiotherapy alone (RT) group and combination group were anesthetized and received radiation therapy (2Gy) at days 7, 8, 9, 10, and 11. Mice in combination group were also treated with a compound of Example 3 (30 mg/kg once a week) administered orally (p.o.) or Example 4 (5 mg/kg once a week) administered intravenously (i. v.) on days 7, 14, 22, and 27. Tumour volumes were assessed at least twice weekly by bilateral vernier caliper measurements. Survival period was determined by the time taken for tumours to reach 4 times the volume at the time of treatment.
# Renca mouse tumour cells = assay: Tumour growth studies in Renca, a murine syngeneic renal carcinoma tumour model; assay type: in vivo; conditions: Balb/C mice, 3 mg/kg once a week p.o. on days 1, 8, 15; vs 0.5% methylcellulose; FIG. 10
# Method: Experiments were conducted on female mice (Balb/C genotype, at least 5 weeks old). Renca mouse tumour cells (Cancer Chemother Pharmacol. 1995; 36 (1): 7-12) were kindly provided by Dr. T. Fujioka at Department of Urology, Iwate Medical University School of Medicine. Renca mouse tumour cells (5×10^4) were implanted subcutaneously in the flank of mice on day 0. Mice were treated with either drug vehicle (0.5% methylcellulose), the compound of Example 3 (0.3 mg/kg once a week) or the compound of Example 4 (3 mg/kg once a week) administered orally (p. o.) on days 1, 8, and 15. Tumour volumes were assessed at least twice weekly by bilateral vernier caliper measurements.
# Tumour growth inhibition from the start of treatment was assessed by comparison of the differences in tumour growth rate between control and the compound of Example 3 treated groups, as shown in FIG. 9.
# Tumour growth inhibition from the start of treatment was assessed by comparison of the differences in tumour growth rate between control and the compound of the Example 4 treated groups, as shown in FIG. 10.
# hERG potassium channel = hERG potassium channel (Homo sapiens (Human), UniProt Q12809); assay: hERG Analysis - Method 2 (QPATCH HT, CHO-hERG cells); assay type: cell-based; conditions: half-maximal inhibition concentration, 22±2° C.
# Method: The hERG potassium current was measured in a hERG-stably-expressing Chinese hamster ovary K1 (CHO) cells. The experiments were performed using an automated planar patch-clamp system QPATCH HT (Sophion Bioscience A/S). The application of pressure for forming gigaseals and whole-cell patch clamp configuration were established using the QPATCH assay software. Patch-clamp experiments were performed in voltage-clamp mode and whole-cell currents were recorded from individual cells. The following stimulation protocol was applied to investigate the effects of compounds on hERG potassium channel: The membrane potential was held at −80 mV and repetitively (every 15 s) depolarized to +20 mV for 5 s after the pulse to −50 mV for 20 ms served to define the baseline, followed by repolarizing step to −50 mV for 5 s to evaluate of the tail current amplitude. Experiments were conducted at room temperature (22±2° C.).
# Effects of compounds were determined from cumulative applications of increasing 4 concentrations and calculated as percent of blocked current. The data points were fitted with Hill equation to calculate half-maximal inhibition concentrations. The test solution includes: Extracellular solution (mM): 2 mM of CaCl2, 1 mM of MgCl2, 10 mM of HEPES, 4 mM of KCl, 145 mM of NaCl, and 10 mM of Glucose; and Intracellular solution (mM): 5.4 mM of CaCl2, 1.8 mM of MgCl2, 10 mM of HEPES, 31 mM of KOH, 10 mM of EGTA, 120 mM of KCl, and 4 mM of ATP.
# human TLR8 = human TLR8 (Homo sapiens (Human), UniProt Q9NR97); assay: Human TLR8 assay (TLR8/NF-kB/SEAPorter HEK 293 Cell Line); assay type: cell-based; conditions: SEAP induction, overnight incubation at 37° C., 0.1% DMSO; read-out: TLR8 pEC50 (converted)
# Source text: TLR8/NF-kB/SEAPorter™ HEK 293 Cell Line (Imgenex Corporation) is a stably co-transfected cell line which expresses full-length human TLR8 and the secreted alkaline phosphatase (SEAP) reporter gene under the transcriptional control of an NF-κB response element. TLR8 expression in this cell line has been tested by flow cytometry. Transfectants with stable expression were selected using the antibiotic blasticidin and geneticin. TLR signaling leads to the translocation of NF-κB and activation of the promoter results in expression of the SEAP gene. TLR8-specific activation was assessed by determining the level of SEAP produced following overnight incubation of the cells at 37° C. with the standard compound in the presence of 0.1% (v/v) dimethylsulfoxide (DMSO). Concentration dependent induction of SEAP production by compounds was expressed as the concentration of compound which produced half of the maximal level of SEAP induction for that compound (EC50).
# human TLR7 = human TLR7 (Homo sapiens (Human), UniProt Q9NYK1); assay: Human TLR7 assay (SEAP reporter in HEK293); assay type: cell-based; conditions: SEAP induction, overnight incubation at 37° C., 0.1% DMSO; read-out: TLR7 (pEC50) (converted)
# Source text: Recombinant human TLR7 was stably expressed in a HEK293 cell line already stably expressing the pNiFty2-SEAP reporter plasmid; integration of the reporter gene was maintained by selection with the antibiotic zeocin. The most common variant sequence of human TLR7 (represented by the EMBL sequence AF240467) was cloned into the mammalian cell expression vector pUNO and transfected into this reporter cell-line. Transfectants with stable expression were selected using the antibiotic blasticidin. In this reporter cell-line, expression of secreted alkaline phosphatase (SEAP) is controlled by an NFkB/ELAM-1 composite promoter comprising five NFkB sites combined with the proximal ELAM-1 promoter. TLR signaling leads to the translocation of NFkB and activation of the promoter results in expression of the SEAP gene. TLR7-specific activation was assessed by determining the level of SEAP produced following overnight incubation of the cells at 37° C. with the standard compound in the presence of 0.1% (v/v) dimethylsulfoxide (DMSO). Concentration dependent induction of SEAP production by compounds was expressed as the concentration of compound which produced half of the maximal level of SEAP induction for that compound (EC50).
# Sequence of human TLR7 (Q9NYK1 27-1049): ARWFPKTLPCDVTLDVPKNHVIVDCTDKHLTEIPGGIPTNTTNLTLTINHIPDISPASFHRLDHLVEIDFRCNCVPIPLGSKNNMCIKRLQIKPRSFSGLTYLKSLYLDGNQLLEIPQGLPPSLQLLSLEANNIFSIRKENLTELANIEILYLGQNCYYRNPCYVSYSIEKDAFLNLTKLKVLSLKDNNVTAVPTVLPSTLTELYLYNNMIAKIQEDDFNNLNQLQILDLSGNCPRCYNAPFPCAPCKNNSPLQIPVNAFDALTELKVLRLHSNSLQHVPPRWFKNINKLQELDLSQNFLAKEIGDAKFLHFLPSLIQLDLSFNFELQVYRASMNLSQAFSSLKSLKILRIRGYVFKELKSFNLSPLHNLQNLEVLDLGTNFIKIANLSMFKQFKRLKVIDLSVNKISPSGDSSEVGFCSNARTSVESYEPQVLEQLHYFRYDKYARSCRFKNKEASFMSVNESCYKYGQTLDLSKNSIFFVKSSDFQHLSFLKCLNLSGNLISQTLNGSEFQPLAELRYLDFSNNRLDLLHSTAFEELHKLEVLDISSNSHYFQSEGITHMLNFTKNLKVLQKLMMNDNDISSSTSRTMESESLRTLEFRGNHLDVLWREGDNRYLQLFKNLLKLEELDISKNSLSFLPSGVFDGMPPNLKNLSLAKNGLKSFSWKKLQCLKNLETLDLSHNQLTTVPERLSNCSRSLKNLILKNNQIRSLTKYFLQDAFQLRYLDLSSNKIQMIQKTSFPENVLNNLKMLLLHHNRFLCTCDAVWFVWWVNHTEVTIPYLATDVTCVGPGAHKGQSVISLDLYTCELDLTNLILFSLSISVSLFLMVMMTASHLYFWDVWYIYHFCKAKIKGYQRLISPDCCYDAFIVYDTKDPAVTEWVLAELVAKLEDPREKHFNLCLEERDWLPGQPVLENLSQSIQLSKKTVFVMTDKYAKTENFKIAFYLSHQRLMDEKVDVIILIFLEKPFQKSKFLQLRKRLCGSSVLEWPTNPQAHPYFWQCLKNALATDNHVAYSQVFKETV
# Sequence of hERG potassium channel (Q12809 whole entry): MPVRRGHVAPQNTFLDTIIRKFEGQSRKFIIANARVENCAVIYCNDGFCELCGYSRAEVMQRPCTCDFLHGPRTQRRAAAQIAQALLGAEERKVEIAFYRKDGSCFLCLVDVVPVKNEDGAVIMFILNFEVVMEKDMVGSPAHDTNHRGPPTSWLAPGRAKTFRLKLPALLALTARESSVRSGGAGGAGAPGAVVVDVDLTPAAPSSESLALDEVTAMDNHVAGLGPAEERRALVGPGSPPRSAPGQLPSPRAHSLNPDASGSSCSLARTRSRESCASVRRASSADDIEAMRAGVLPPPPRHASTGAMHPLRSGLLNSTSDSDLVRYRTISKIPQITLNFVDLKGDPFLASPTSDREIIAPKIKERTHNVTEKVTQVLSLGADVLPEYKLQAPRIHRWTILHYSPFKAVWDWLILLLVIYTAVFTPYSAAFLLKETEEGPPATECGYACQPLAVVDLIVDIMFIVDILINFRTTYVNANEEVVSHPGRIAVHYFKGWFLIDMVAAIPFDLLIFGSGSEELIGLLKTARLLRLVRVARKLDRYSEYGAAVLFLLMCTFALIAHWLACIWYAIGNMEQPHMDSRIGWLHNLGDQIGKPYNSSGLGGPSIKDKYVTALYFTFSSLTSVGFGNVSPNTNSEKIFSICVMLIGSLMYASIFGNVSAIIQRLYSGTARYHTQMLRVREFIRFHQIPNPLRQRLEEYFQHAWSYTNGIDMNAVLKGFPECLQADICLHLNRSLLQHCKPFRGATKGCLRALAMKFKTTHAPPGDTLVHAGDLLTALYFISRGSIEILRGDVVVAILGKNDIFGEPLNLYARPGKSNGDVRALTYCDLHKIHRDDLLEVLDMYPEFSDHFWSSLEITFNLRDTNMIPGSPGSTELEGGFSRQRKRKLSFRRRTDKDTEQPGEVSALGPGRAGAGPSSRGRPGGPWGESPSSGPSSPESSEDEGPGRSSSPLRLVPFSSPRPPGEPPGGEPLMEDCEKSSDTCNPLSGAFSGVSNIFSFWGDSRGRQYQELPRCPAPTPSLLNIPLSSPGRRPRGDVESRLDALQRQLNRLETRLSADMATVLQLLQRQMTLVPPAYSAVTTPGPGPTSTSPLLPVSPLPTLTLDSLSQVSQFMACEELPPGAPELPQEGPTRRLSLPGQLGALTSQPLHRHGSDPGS
# Sequence of human TLR8 (Q9NR97 27-1041): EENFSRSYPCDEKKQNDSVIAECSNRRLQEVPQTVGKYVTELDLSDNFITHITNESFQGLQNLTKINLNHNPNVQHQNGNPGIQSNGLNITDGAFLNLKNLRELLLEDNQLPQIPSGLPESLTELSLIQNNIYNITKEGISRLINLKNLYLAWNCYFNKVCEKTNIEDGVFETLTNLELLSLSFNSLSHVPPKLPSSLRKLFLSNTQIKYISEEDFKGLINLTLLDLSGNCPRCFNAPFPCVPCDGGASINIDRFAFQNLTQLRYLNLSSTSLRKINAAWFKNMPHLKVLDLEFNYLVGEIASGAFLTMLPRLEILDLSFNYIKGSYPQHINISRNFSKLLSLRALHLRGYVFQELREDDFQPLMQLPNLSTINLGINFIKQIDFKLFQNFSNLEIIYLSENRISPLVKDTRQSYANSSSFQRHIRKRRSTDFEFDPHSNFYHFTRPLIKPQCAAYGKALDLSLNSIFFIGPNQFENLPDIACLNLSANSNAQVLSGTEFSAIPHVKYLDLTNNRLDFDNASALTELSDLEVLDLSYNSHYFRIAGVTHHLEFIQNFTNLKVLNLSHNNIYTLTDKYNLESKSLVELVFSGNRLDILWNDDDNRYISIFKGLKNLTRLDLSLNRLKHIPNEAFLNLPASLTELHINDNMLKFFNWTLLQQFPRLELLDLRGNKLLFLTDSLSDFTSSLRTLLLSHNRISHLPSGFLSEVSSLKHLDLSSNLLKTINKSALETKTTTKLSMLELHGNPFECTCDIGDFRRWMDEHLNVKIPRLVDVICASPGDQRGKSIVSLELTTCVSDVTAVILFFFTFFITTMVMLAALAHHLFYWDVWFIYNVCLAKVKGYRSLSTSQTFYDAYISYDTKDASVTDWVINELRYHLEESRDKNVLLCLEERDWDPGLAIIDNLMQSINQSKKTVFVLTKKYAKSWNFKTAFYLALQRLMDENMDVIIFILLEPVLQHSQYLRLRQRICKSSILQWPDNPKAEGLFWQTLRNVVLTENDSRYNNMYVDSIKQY
compound,measurement,setting,value
"CCC[C@@H](CCO)Nc1nc(N)nc(C)c1Cc1ccc(CN(CC(=O)O)CC(F)(F)F)cc1OC [Example 4, (S)-2-((4-((2-amino-4-(1-hydroxyhexan-3-ylamino)-6-methylpyrimidin-5-yl)methyl)-3-methoxybenzyl)(2,2,2-trifluoroethyl)amino)acetic acid]",Survival period (time for tumours to reach 4 times the volume at treatment),CT26 mouse tumour cells,survived significantly longer
same,Tumour growth inhibition,Renca mouse tumour cells,inhibited tumour growth
same,IC50,hERG potassium channel,> 10 µM
same,EC50,human TLR8,> 10 µM
same,EC50,human TLR7,0.1 µM
